Reference: PubChem BioAssay AID1963431 (Molecular Pharmacology Branch, DTP, NCI, 2024)

Test system: Rh18 complex spheroid viability, percent test/control
Assay: Anticancer human tumor Rh18 cell line growth inhibition [Asc];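 further: spheroids exposed to compound for 7 days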;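 on viability, T/C: 100% = DMSO vehicle control wells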
Conditions: for IC50: curve of first compound; for viability, T/C: stronger effect = lower value
Summary of the method: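 Tumor cells were grown as multicellular spheroids with stromal HUVEC and mesenchymal stem cells and treated singly or in combination. Concentrations fell in half-log steps from the clinical Cmax, or from 10 microM where none was known.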

SMILES: Cc1nc(N2CCC3(CC2)COC(C)C3N)c(CO)nc1Sc1ccnc(N)c1Cl (centres undefined) + CCN1C(C(=O)NC23CCC(C(=O)O)(CC2)CC3)C(c2cccc(Cl)c2F)C2(C(=O)Nc3cc(Cl)ccc32)C12CCCCC2
- IC50 (second compound 0.03 µM): < 9.49 nM
- IC50 (second compound 0.0949 µM): < 9.49 nM
- IC50 (second compound 0.3 µM): < 9.49 nM
- IC50 (second compound 0.949 µM): < 9.49 nM
- IC50 (second compound 3 µM): < 9.49 nM
- viability, T/C (second compound 0.03 µM, first compound 0.00949 µM): 27%
- viability, T/C (second compound 0.03 µM, first compound 0.03 µM): 25.9%
- viability, T/C (second compound 0.03 µM, first compound 0.0949 µM): 21.3%
- viability, T/C (second compound 0.03 µM, first compound 0.3 µM): 17.6%
- viability, T/C (second compound 0.03 µM, first compound 0.949 µM): 12.5%
- viability, T/C (second compound 0.03 µM, first compound 3 µM): 10.6%
- viability, T/C (second compound 0.0949 µM, first compound 0.00949 µM): 15.7%
- viability, T/C (second compound 0.0949 µM, first compound 0.03 µM): 14.1%
- viability, T/C (second compound 0.0949 µM, first compound 0.0949 µM): 12.6%
- viability, T/C (second compound 0.0949 µM, first compound 0.3 µM): 10.3%
- viability, T/C (second compound 0.0949 µM, first compound 0.949 µM): 10%
- viability, T/C (second compound 0.0949 µM, first compound 3 µM): 5.48%
- viability, T/C (second compound 0.3 µM, first compound 0.00949 µM): 10.6%
- viability, T/C (second compound 0.3 µM, first compound 0.03 µM): 11.8%
- viability, T/C (second compound 0.3 µM, first compound 0.0949 µM): 7.08%
- viability, T/C (second compound 0.3 µM, first compound 0.3 µM): 6.62%
- viability, T/C (second compound 0.3 µM, first compound 0.949 µM): 4.84%
- viability, T/C (second compound 0.3 µM, first compound 3 µM): 3.71%
- viability, T/C (second compound 0.949 µM, first compound 0.00949 µM): 7.44%
- viability, T/C (second compound 0.949 µM, first compound 0.03 µM): 6.92%
- viability, T/C (second compound 0.949 µM, first compound 0.0949 µM): 5.92%
- viability, T/C (second compound 0.949 µM, first compound 0.3 µM): 4.76%
- viability, T/C (second compound 0.949 µM, first compound 0.949 µM): 3.46%
- viability, T/C (second compound 0.949 µM, first compound 3 µM): 1.83%
- viability, T/C (second compound 3 µM, first compound 0.00949 µM): 5.58%
- viability, T/C (second compound 3 µM, first compound 0.03 µM): 7.16%
- viability, T/C (second compound 3 µM, first compound 0.0949 µM): 4.62%
- viability, T/C (second compound 3 µM, first compound 0.3 µM): 3.55%
- viability, T/C (second compound 3 µM, first compound 0.949 µM): 3.01%
- viability, T/C (second compound 3 µM, first compound 3 µM): 1.74%

SMILES: C#Cc1c(F)ccc2cc(O)cc(-c3ncc4c(N5CC6CCC(C5)N6)nc(OCC56CCCN5CC(F)C6)nc4c3F)c12 (centres undefined) + CNC(C)C(=O)NC1CN(S(=O)(=O)c2cccc(S(=O)(=O)N3CCC4CCC(C(=O)NC(c5ccccc5)c5ccccc5)N4C(=O)C(NC(=O)C(C)NC)C3)c2)CCC2CCC(C(=O)NC(c3ccccc3)c3ccccc3)N2C1=O
- IC50 (second compound 0.00316 µM): 5080 nM
- IC50 (second compound 0.01 µM): 4310 nM
- IC50 (second compound 0.0316 µM): 3640 nM
- IC50 (second compound 0.1 µM): < 31.6 nM
- IC50 (second compound 0.316 µM): 1790 nM
- IC50 (second compound 1 µM): 3380 nM
- viability, T/C (second compound 0.00316 µM, first compound 0.0316 µM): 67.1%
- viability, T/C (second compound 0.00316 µM, first compound 0.1 µM): 60.7%
- viability, T/C (second compound 0.00316 µM, first compound 0.316 µM): 64.5%
- viability, T/C (second compound 0.00316 µM, first compound 1 µM): 65%
- viability, T/C (second compound 0.00316 µM, first compound 3.16 µM): 70.7%
- viability, T/C (second compound 0.00316 µM, first compound 10 µM): 27.7%
- viability, T/C (second compound 0.01 µM, first compound 0.0316 µM): 57.4%
- viability, T/C (second compound 0.01 µM, first compound 0.1 µM): 60.7%
- viability, T/C (second compound 0.01 µM, first compound 0.316 µM): 50.2%
- viability, T/C (second compound 0.01 µM, first compound 1 µM): 74.8%
- viability, T/C (second compound 0.01 µM, first compound 3.16 µM): 63.9%
- viability, T/C (second compound 0.01 µM, first compound 10 µM): 18.9%
- viability, T/C (second compound 0.0316 µM, first compound 0.0316 µM): 63.2%
- viability, T/C (second compound 0.0316 µM, first compound 0.1 µM): 40.7%
- viability, T/C (second compound 0.0316 µM, first compound 0.316 µM): 52.2%
- viability, T/C (second compound 0.0316 µM, first compound 1 µM): 55.3%
- viability, T/C (second compound 0.0316 µM, first compound 3.16 µM): 61.5%
- viability, T/C (second compound 0.0316 µM, first compound 10 µM): 17.6%
- viability, T/C (second compound 0.1 µM, first compound 0.0316 µM): 40.1%
- viability, T/C (second compound 0.1 µM, first compound 0.1 µM): 52.3%
- viability, T/C (second compound 0.1 µM, first compound 0.316 µM): 40.3%
- viability, T/C (second compound 0.1 µM, first compound 1 µM): 61.9%
- viability, T/C (second compound 0.1 µM, first compound 3.16 µM): 50.9%
- viability, T/C (second compound 0.1 µM, first compound 10 µM): 14.1%
- viability, T/C (second compound 0.316 µM, first compound 0.0316 µM): 74.4%
- viability, T/C (second compound 0.316 µM, first compound 0.1 µM): 69%
- viability, T/C (second compound 0.316 µM, first compound 0.316 µM): 58.9%
- viability, T/C (second compound 0.316 µM, first compound 1 µM): 47.2%
- viability, T/C (second compound 0.316 µM, first compound 3.16 µM): 54.4%
- viability, T/C (second compound 0.316 µM, first compound 10 µM): 11.8%
- viability, T/C (second compound 1 µM, first compound 0.0316 µM): 78.2%
- viability, T/C (second compound 1 µM, first compound 0.1 µM): 50.2%
- viability, T/C (second compound 1 µM, first compound 0.316 µM): 45%
- viability, T/C (second compound 1 µM, first compound 1 µM): 51.6%
- viability, T/C (second compound 1 µM, first compound 3.16 µM): 53.3%
- viability, T/C (second compound 1 µM, first compound 10 µM): 10.5%

SMILES: Cc1nc(N2CCC3(CC2)COC(C)C3N)c(CO)nc1Sc1ccnc(N)c1Cl (centres undefined) + CNC(C)C(=O)NC1CN(S(=O)(=O)c2cccc(S(=O)(=O)N3CCC4CCC(C(=O)NC(c5ccccc5)c5ccccc5)N4C(=O)C(NC(=O)C(C)NC)C3)c2)CCC2CCC(C(=O)NC(c3ccccc3)c3ccccc3)N2C1=O
- IC50 (second compound 0.00316 µM): 12.3 nM
- IC50 (second compound 0.01 µM): 18.8 nM
- IC50 (second compound 0.0316 µM): 12.4 nM
- IC50 (second compound 0.1 µM): 15.6 nM
- IC50 (second compound 0.316 µM): < 9.49 nM
- IC50 (second compound 1 µM): 11.5 nM
- viability, T/C (second compound 0.00316 µM, first compound 0.00949 µM): 44.4%
- viability, T/C (second compound 0.00316 µM, first compound 0.03 µM): 60%
- viability, T/C (second compound 0.00316 µM, first compound 0.0949 µM): 34.7%
- viability, T/C (second compound 0.00316 µM, first compound 0.3 µM): 33.7%
- viability, T/C (second compound 0.00316 µM, first compound 0.949 µM): 23.2%
- viability, T/C (second compound 0.00316 µM, first compound 3 µM): 12.9%
- viability, T/C (second compound 0.01 µM, first compound 0.00949 µM): 56%
- viability, T/C (second compound 0.01 µM, first compound 0.03 µM): 48.8%
- viability, T/C (second compound 0.01 µM, first compound 0.0949 µM): 30.7%
- viability, T/C (second compound 0.01 µM, first compound 0.3 µM): 25.8%
- viability, T/C (second compound 0.01 µM, first compound 0.949 µM): 23.2%
- viability, T/C (second compound 0.01 µM, first compound 3 µM): 14.9%
- viability, T/C (second compound 0.0316 µM, first compound 0.00949 µM): 51.2%
- viability, T/C (second compound 0.0316 µM, first compound 0.03 µM): 45.7%
- viability, T/C (second compound 0.0316 µM, first compound 0.0949 µM): 31.2%
- viability, T/C (second compound 0.0316 µM, first compound 0.3 µM): 23.3%
- viability, T/C (second compound 0.0316 µM, first compound 0.949 µM): 23.4%
- viability, T/C (second compound 0.0316 µM, first compound 3 µM): 16.1%
- viability, T/C (second compound 0.1 µM, first compound 0.00949 µM): 63%
- viability, T/C (second compound 0.1 µM, first compound 0.03 µM): 32.3%
- viability, T/C (second compound 0.1 µM, first compound 0.0949 µM): 22.9%
- viability, T/C (second compound 0.1 µM, first compound 0.3 µM): 28.2%
- viability, T/C (second compound 0.1 µM, first compound 0.949 µM): 21.9%
- viability, T/C (second compound 0.1 µM, first compound 3 µM): 13.2%
- viability, T/C (second compound 0.316 µM, first compound 0.00949 µM): 45.9%
- viability, T/C (second compound 0.316 µM, first compound 0.03 µM): 24.1%
- viability, T/C (second compound 0.316 µM, first compound 0.0949 µM): 31.3%
- viability, T/C (second compound 0.316 µM, first compound 0.3 µM): 25.5%
- viability, T/C (second compound 0.316 µM, first compound 0.949 µM): 18.9%
- viability, T/C (second compound 0.316 µM, first compound 3 µM): 13.9%
- viability, T/C (second compound 1 µM, first compound 0.00949 µM): 54%
- viability, T/C (second compound 1 µM, first compound 0.03 µM): 30%
- viability, T/C (second compound 1 µM, first compound 0.0949 µM): 22%
- viability, T/C (second compound 1 µM, first compound 0.3 µM): 22.8%
- viability, T/C (second compound 1 µM, first compound 0.949 µM): 37.9%
- viability, T/C (second compound 1 µM, first compound 3 µM): 16.7%
